Measured values reported in patent US9968620B2, “Methods of treating lymphoma using thienotriazolodiazepine compounds” (ONCOETHIX GmbH, priority 2014, dated 2018).

Legend:
IL10 and IL4 production = experiment: IL10 and IL4 production; type: cell-based; settings: after 24 hours treatment
[1] = tested on: SU-DHL-6, SU-DHL-2 cell lines; experiment: Gene expression profiling (GEP), Illumina HumanHT-12; type: cell-based, human; settings: 500 nM, 1, 2, 4, 8 or 12 hours
Method: (§1) Cell lines: 22 diffuse large B-cell lymphoma (DLBCL), 4 mantle cell lymphomas, 3 multiple myelomas, 3 splenic marginal zone lymphoma and 1 prolymphocytic leukemia. Antiproliferative activity of compound (1-1) (OncoEthix SA, Switzerland) was assessed by MTT and its cytotoxic activity by Annexin V staining and gene expression profiling (GEP) with Illumina HumanHT-12 Expression BeadChips. Data mining was done with LIMMA, GSEA, Metacore. Synergy was assessed in cells (2-5 cell lines) exposed for 72 h to increasing doses of compound (1-1) alone or in combination with increasing doses of other agents. MTT assays were performed and Chou-Talalay combination index (CI) calculated.
We performed GEP on 2 cell lines (SU-DHL-6, SU-DHL-2), treated with DMSO or compound (1-1) (500 nM) for 1, 2, 4, 8 or 12 hours.

DLBCL cell lines = experiment: GEP variations of validated miRNA target genes; type: cell-based, human
Method: (§2) Total RNA was extracted from 2 DLBCL cell lines, the germinal center B-cell (GCB) type DOHH2 and from the activated B-cell-like (ABC)-type SU-DHL-2, following treatment with compound (1-1) (500 nM) or DMSO for 4 h or 8 h. RNA samples were labeled with cyanine-3 dye using the Agilent microRNA Complete Labeling System & Hyb Kit and hybridized to the Agilent Human microRNA microarray v.3. Raw expression values were obtained with Agilent Feature Extraction Software, log-transformed and normalized by the quantile method. Data were filtered to exclude relatively invariant features and those below the detection threshold. Limma (Linear Models for Microarray data analysis) was employed using R/Bioconductor and the filtered dataset. Baseline miRNA profiling was obtained in 22 DLBCL cell lines with the Nanostring nCounter Human v2 miRNA Expression Assay kit. Baseline gene expression profiling (GEP) was obtained in the 22 cell lines with the Illumina HumanHT-12 v4 Expression BeadChip. Selected miRNA changes were validated by real-time PCR. The miRWalk database (Dweep et al, 2011) was used to retrieve the validated miRNA targets. Gene Set Enrichment Analysis (GSEA) software was used to assess enrichment of miRNA targets in the GEP datasets.
Total RNA was extracted from 2 diffuse large B-Cell lymphoma (DLBCL) cell lines, the germinal center B-cell (GCB) type DOHH2 and activated B-cell-like (ABC)-type SU-DHL-2, following treatment with 500 nM compound (1-1) or DMSO for 4 h or 8 h. RNA samples were labeled with cyanine-3 dye using the Agilent microRNA Complete Labeling System & Hyb Kit and hybridized to the Agilent Human microRNA microarray v.3. Raw expression values were obtained with Agilent Feature Extraction Software, log-transformed and normalized by the quantile method. Data were filtered to exclude relatively invariant features and those below the detection threshold. Limma was employed using R/Bioconductor and the filtered dataset. Baseline microRNA (abbreviated miRNA) profiling was obtained from 30 B-cell lymphoma cell lines, including 22 DLBCL with the Nanostring nCounter Human v2 miRNA Expression Assay kit. Baseline gene expression profiling (GEP) was obtained with the Illumina HumanHT-12 v4 Expression BeadChip. Selected miRNA changes were validated by real-time PCR. Validated miRNA targets were retrieved using the miRWalk database (Dweep et al, 2011). […] Changes in these miRNAs matched GEP variations of validated target genes (e.g., miR-92a-1-5p: CDKN1A, log 2 FC, 0.81, CDKN2A, log 2 FC, 0.81; miR-96-5p: MYC, log 2 FC, −0.57, MYD88, log 2 FC, −0.35).

[2] = tested on: 22 diffuse large B-cell lymphoma (DLBCL), 4 mantle cell lymphomas, 3 multiple myelomas, 3 splenic marginal zone lymphoma and 1 prolymphocytic leukemia cell …; experiment: Antiproliferative activity by MTT; type: cell-based; settings: 500 nM, 72 h; 88%
Method: as §1, with “[…].” for “Antiproliferative activity of compound (1-1) (OncoEthix SA, Switzerland) was assessed by MTT and its cytotoxic activity by Annexin V staining and gene expression profiling (GEP) with Illumina HumanHT-12 Expression BeadChips.”

[3] = Antiproliferative activity by MTT; type: cell-based; settings: B-cell
Method: as §1, with “[…].” for “Antiproliferative activity of compound (1-1) (OncoEthix SA, Switzerland) was assessed by MTT and its cytotoxic activity by Annexin V staining and gene expression profiling (GEP) with Illumina HumanHT-12 Expression BeadChips.”

[4] = Oral exposure in the rat (pharmacokinetics); type: in vivo, Sprague Dawley rats; settings: rats, 1 mg/kg intravenous
[5] = tested on: DOHH2 and SU-DHL-2 DLBCL cell lines; experiment: miRNA profiling, Agilent Human microRNA microarray; type: cell-based; settings: 500 nM vs DMSO, 4 h or 8 h
Method: as §2
Total RNA was extracted from 2 diffuse large B-Cell lymphoma (DLBCL) cell lines, the germinal center B-cell (GCB) type DOHH2 and activated B-cell-like (ABC)-type SU-DHL-2, following treatment with 500 nM compound (1-1) or DMSO for 4 h or 8 h. RNA samples were labeled with cyanine-3 dye using the Agilent microRNA Complete Labeling System & Hyb Kit and hybridized to the Agilent Human microRNA microarray v.3. Raw expression values were obtained with Agilent Feature Extraction Software, log-transformed and normalized by the quantile method. Data were filtered to exclude relatively invariant features and those below the detection threshold. Limma was employed using R/Bioconductor and the filtered dataset. […]

[6] = tested on: NFKB target genes (IRF4, TNF AIP3 and BIRC3); experiment: PCR of NFKB target genes; type: cell-based
ABC cell lines = experiment: Immunoblotting and immunohistochemistry; type: cell-based
lymphoma cell lines = experiment: Cytotoxic activity (apoptosis) by Annexin V staining; type: cell-based; settings: 500 nM, 72 h; 14%

- CI/F [4]: 13.4 mL/min/kg
Compound: Cc1sc2c(c1C)C(c1ccc(Cl)cc1)=N[C@@H](CC(=O)Nc1ccc(O)cc1)c1nnc(C)n1-2 [Compound (1-1), 2-[(6S)-4-(4-chlorophenyl)-2,3,9-trimethyl-6H-thienol[3,2-f]-[1,2,4]triazolo[4,3-a][1,4]diazepin-6-yl]-N-(4-hydroxyphenyl)acetamide dihydrate]
- IL10 and IL4 production (IL10 and IL4 production): reduced
- expression of MYC (GEP) [1]: most frequently downregulated gene
- expression of MYD88, IRAK1, TLR6, IL6, STAT3, and TNFRSF17 (NFKB, TLR and JAK/STAT pathways) [1]: downregulated
- expression of histone genes (GEP) [1]: upregulated
- CDKN1A expression (miR-92a-1-5p target), log 2 FC (DLBCL cell lines): 0.81 log 2 FC
- CDKN2A expression (miR-92a-1-5p target), log 2 FC (DLBCL cell lines): 0.81 log 2 FC
- MYC expression (miR-96-5p target), log 2 FC (DLBCL cell lines): −0.57 log 2 FC
- MYD88 expression (miR-96-5p target), log 2 FC (DLBCL cell lines): −0.35 log 2 FC
- cell lines showing cytostatic activity [2]: 29/33
- IC50 ([3]; cell lines with lower sensitivity (8 of 22 DLBCL cell lines)): > 0.5 µM
- IC50 ([3]; sensitive cell lines (14 of 22 DLBCL cell lines)): < 0.5 µM
- miR-21-3p expression, log 2 FC [5]: −0.37 log 2 FC
- miR-92a-1-5p expression, log 2 FC [5]: −2.01 log 2 FC
- miR-96-5p expression, log 2 FC [5]: 0.39 log 2 FC
- expression of NFKB target genes (IRF4, TNF AIP3 and BIRC3) [6]: downregulated
- transcriptionally active pSTAT3 (ABC cell lines; 2 ABC cell lines): reduction
- nuclear localization of p50 (NFKB 1) (ABC cell lines; ABC cell lines): reduction
- cell lines showing apoptosis (lymphoma cell lines): 3/22
